ChEMBL document CHEMBL5338771, “Trioxacarcin A Interactions with G-Quadruplex DNA Reveal Its Potential New Targets as an Anticancer Agent” (J Med Chem, 2023)
Calls of active or inactive are those of the source. No cut-off for these calls is given here.

Legend:
Format in all cases: nucleic-acid assay
Quadruplex DNA [1] = assay: Binding affinity to RET G4 quadruplex DNA (unknown origin) by measuring chemical shift change for 0 to 21 days by 1D 1H-NMR analysis; conditions: time 0-21 day
Quadruplex DNA [2] = assay: Induction of DNA stabilization in free RET G4 quadruplex DNA (unknown origin) assessed as melting temperature in 100 mM K+ buffer solution by DSC spectra analysis
Quadruplex DNA [3] = assay: Covalent binding affinity to RET G4 quadruplex DNA (unknown origin) assessed as stable complex formation by measuring molecular weight peak after 19 days by mass spectrum analysis; conditions: time 19.0 day
Quadruplex DNA [4] = assay: Covalent binding affinity to RET G4 quadruplex DNA (unknown origin) assessed as alkylation at G14 base by DNA cleavage assay
Quadruplex DNA [5] = assay: Induction of DNA stabilization in abasic-basic RET G4 quadruplex DNA (unknown origin) assessed as melting temperature in 100 mM K+ buffer solution by DSC spectra analysis
Quadruplex DNA [6] = assay: Covalent binding affinity to RET G4 quadruplex DNA (unknown origin) assessed as stable complex formation measured after 9 days by mass spectrum analysis; conditions: time 9.0 day
Quadruplex DNA [7] = assay: Covalent binding affinity to RET G4 quadruplex DNA (unknown origin) assessed as alkylation at G4 base at 98 degC for 5 mins by DNA cleavage assay
Quadruplex DNA [8] = assay: Induction of DNA stabilization in RET G4 quadruplex DNA (unknown origin) containing 2'-F base G4 assessed as melting temperature (reference value: 71.99 degreeC)
Quadruplex DNA [9] = assay: Covalent binding affinity to RET G4 quadruplex DNA (unknown origin) assessed as alkylation at G6 base by DNA cleavage assay
Quadruplex DNA [10] = assay: Binding affinity to c-MYC G4 quadruplex DNA (unknown origin) by 1D 1H-NMR analysis
Quadruplex DNA [11] = assay: Covalent binding affinity to RET G4 quadruplex DNA (unknown origin) by measuring molecular weight for complex formation by ESI mass spectrum analysis

## COc1c2c(c(O)c3c4c(c(C)cc13)C1O[C@@]3(C(OC)OC)OC1[C@](O[C@H]1C[C@@H](O)[C@@](O)(C(C)=O)[C@H](C)O1)(O4)C31CO1)C(=O)[C@@H](O)C[C@@H]2OC1C[C@](C)(O)[C@@H](OC(C)=O)[C@@H](C)O1 (stereo partly specified)
Quadruplex DNA [1]
  Activity: Active
Quadruplex DNA [2]
  Tm: 91 °C
Quadruplex DNA [3]
  Activity: 7330 Da
Quadruplex DNA [4]
  Activity: inactive
Quadruplex DNA [5]
  Tm: 78 °C
Quadruplex DNA [6]
  Activity: Active
Quadruplex DNA [7]
  Activity: Active
Quadruplex DNA [8]
  Tm: 74.7 °C
Quadruplex DNA [9]
  Activity: inactive
Quadruplex DNA [10]
  Activity: Active
Quadruplex DNA [11]
  Activity: 6450 Da
